“Also recorded” adds a separate entry of the source.
Experiments:
[1] = tested on: human CD161+ NK+NKT cells; experiment: Cytokine secretion by human CD161+ NK+NKT cells in the presence of CD14+ DCs; type: cell-based
Procedure: Human Vα24i NKT cells response to synthetic Sphingomonas and sulfatide glycolipids, in terms of IFN-γ (a) and IL-4 (b) release after culture with 4×10^5 autologous immature CD14+ dendritic cells pulsed with the indicated glycolipid antigens at 10 μg/ml. Negative controls included similar numbers of NKT cells and dendritic cells, cultured without added glycolipid. Data represent mean±S.D. of duplicate well; (c) in vitro INF-γ secretion by human CD161^+ NK+NKT cells (2×10^5/well) in the presence of CD14^+ DCs (4×10^5/well) and 20 μg/ml of various glycolipids; (d) in vitro IL-4 secretion by human CD161^+ NK+NKT cells (2×10^5/well) in the presence of CD14^+ DCs (4×10^5/well) and 20 μg/ml of various glycolipids.

[2] = tested on: CD1d reactive T cell hybridomas with an invariant Vα14i T cell antigen receptor; experiment: 1.2 hybridoma assay (IL-2 release by ELISA); type: cell-based, mouse; conditions: for IL-2 secretion: CD1d coated plates, Sphingomonas glycolipids and analogues; for IL-2 production (relative activity of fatty acyl chain analogs): 0.0001-1 μg/ml, CD1d transfected A20 cells
Procedure: As a measure of T cell activation, IL-2 release into the tissue culture medium was measured after 16 hours culture by an ELISA assay.
As a measure of T cell activation, IL-2 and IFN-γ release into the tissue culture medium was measured after 16 hours culture by an ELISA assay.

[3] = tested on: Vα24i human NKT cell line; experiment: In vitro cytokine secretion assay using human NKT cell lines; type: cell-based; conditions: for IFN-γ secretion / IL-4 secretion: CD14+ immature dendritic cells, 10 μg/ml glycolipid (1-10 μg/ml for 3-O-sulfo-α-galactosylceramide), 10 IU/ml IL-2
Procedure: (§1) Human NKT cell lines, expressing the Vα24i T cell receptor as well as CD161, were generated as follows: Anti-CD161 monoclonal antibodies, and anti-CD14 monoclonal antibodies, each coupled to magnetic beads (Miltenyi biotec, Auburn, Calif.), were used sequentially to isolate CD161^+ cells and CD14^+ cells from leukopaks. Immature dendritic cells were generated from the CD14^+ cells after a two-day incubation in the presence of 300 U/ml GM-CSF (R&D systems, Minneapolis, Minn.) and 100 U/ml IL-4 (R&D systems, Minneapolis, Minn.). Following irradiation with 2000 rads, the immature dendritic cells were co-cultured with syngeneic CD161^+ cells in the presence of 100 ng/ml of alpha-galactosylceramide and 10 IU/ml of IL-2 (Invitrogen, Carlsbad Calif.) for 10 to 14 days. After stimulating the CD161^+ cells a second time with alpha-galactosylceramide-pulsed, irradiated immature dendritic cells, NKT cell lines were shown by flow cytometry to express both CD161^+ and V 24i TCR (99% purity).
(§2) IFN-γ and IL-4 secretion by the Vα 24i human NKT cell line was determined by ELISA (BD Pharmingen, San Diego, Calif.) after culture for 16 hours. For these assays, 1×10^5 Vα 24i human NKT cells were co-cultured with 4×10^5 irradiated, immature CD14^+ dendritic cells, in the presence of the glycolipid compounds at 10 μg/ml in a 96-well flat-bottom plate.
as §1, with “of 100-0.1” for “of 100”
In some cases, Hela cells were transfected with a human CD1d construct [Xing et al. 2005. Bioorg Med Chem 13: 2907], and were used to present the glycolipids, via pulsing with the respective compounds at the indicated concentration, to NKT lines.
as §2, with “IFN-γ” for “IFN-γ and IL-4”

[4] = tested on: Vα24i human NKT cell line; experiment: as above; type: cell-based; conditions: CD14+ DCs; 100-0.1 ng/mL; all doses
[5] = tested on: spleen CD11c+ DCs; experiment: DC maturation in vivo (surface markers, flow cytometry); parameters: species or system mouse; conditions: mouse, in vivo
Procedure: 2×10^7 irradiated J558-Ld^− cells, were injected i.v. or s.c. into Balb/c mice with or without α-Gal Cer as a DC maturation stimulus. In some experiments we compared α-Gal Cer to agonistic anti-CD40 mAb (1C10, 25 μg i.p.) or the toll like receptor ligands, poly IC ([…], Invivogen) or lipopolysaccharide (20 μgm, Sigma). The mice had been given CFSE-labeled PICTL CD8^+ T cells i.v. 1 d earlier, or were naive animals. In some experiments, mice were sacrificed 3 d later, and T cell division and activation in spleen were analyzed by flow cytometry. Additionally, 7 d or 2 months later, 5×10^6 live J558 tumor cells were inoculated subcutaneously. 5×10^6 Meth A fibrosarcoma was used as a control tumor for challenge. Tumor cell growth was measured with calipers every other day. Mice were scored positive for tumor as soon as tumors became palpable and grew progressively. Mice were euthanized when tumor size exceeded 400 mm^2.
T-cell division, phagocytosis of CFSE-labeled tumor cells and acquisition of cell surface-activation markers were determined by flow cytometry. Briefly, spleens were harvested and low-density splenocytes were stained with CD11c-APC and CD8α-PE, CD11b-PE, B220-PE or CD4-PE for the up-take examination. For in vivo proliferation of P1CTL T-cells, spleens were harvested and the splenocytes suspension was staining with CD8α-Cy, Vα8α-PE, CD25-PE, CD62L-PE. For intracellular cytokine staining, splenocytes were stimulated in vitro with 1 µg/ml P1A peptide in 5 μg/ml brefeldin A (Sigma-Aldrich) at 37° C. for 4 hrs. The cells were first stained with CD8α-Cy-Chrome™, fixed and permeabilized with cytofix-cytoperm buffer (BD Biosciences), and stained with PE conjugated mAbs to IL-2 or IFN-γ.
Flow cytometry. Acquisition of cell surface-activation markers was determined by flow cytometry. […] Spleen CD11c+ DCs were isolated using anti-CD11c magnetic beads and stained with CD11c-FITC, CD8α− allophycocyanin, and PE-Conjugated I-Ad, CD40, CD80, CD86, CD119, B7-H1 and B7-DC. We used a FACSCalibur™ with data analysis in FlowJo (Tree Star).

2-Hexacosylamino-1-O-(3-O-sulfo-α-D-galactopyranosyl)-D-ribo-1,3,4-octadecantriol, Sodium Salt [Compound 4]
IL-4 secretion by human NKT cells ([1]; glycolipid presented by CD14+ DCs, 10-20 μg/mL): efficiently stimulated IL-4 and IFN-γ secretion | interferon-γ secretion by human NKT cells ([1]; glycolipid presented by CD14+ DCs, 10-20 μg/mL, compared to α-GalCer, Sodium Salt): superior; also recorded: efficiently stimulated IL-4 and IFN-γ secretion | biological activity in the 1.2 hybridoma assay (IL-2 secretion) [2]: caused significant IL-2 secretion | activity relative to αGalCer (dose response curves, IL-2) ([2]; data not shown): somewhat less active than αGalCer | IL-2 release from the hybridomas ([2]; glycolipid at 10 μg/ml, 16 hours culture): stimulated significant IL-2 release | IFN-γ secretion [3]: approximately half that of α-GalCer | IL-4 secretion [3]: approximately half that of α-GalCer

3-O-sulfo-β-galactosylceramide [Compound 10]
affinity for NKT lymphocytes [1]: minimal to no affinity for NKT lymphocytes | IFN-γ secretion [3]: elicit both IFN-γ and IL-4 production | IL-4 secretion [3]: elicit both IFN-γ and IL-4 production

CCCCCCCCCCCCCCC[C@@H](O)[C@H](COC1OC(C(=O)O)C(O)C(O)C1O)NC(=O)CCCCCCCCCCCCC (some centres unmarked) [Compound 5]
reactivity of human Vα24i NKT cells [3]: conserved

CCCCCCCCCCCCCCC[C@@H](O)[C@H](COC1OC(C(=O)O)C(O)C(O)C1O)NC(=O)[C@@H](O)CCCCCCCCCCCC (some centres unmarked) [Compound 6]
reactivity of human Vα24i NKT cells [3]: conserved

CCCCCCCCCCCCCCC[C@@H](O)[C@H](COC1OC(CO)C(O)C(O)C1O)NC(=O)CCCCCCCCCCCCC (some centres unmarked) [Compound 7]
IL-2 secretion [2]: greater IL-2 secretion

CCCCCCCCCCCCCCC[C@@H](O)[C@H](COC1OC(CO)C(O)C(O)C1O)NC(=O)[C@@H](O)CCCCCCCCCCCC (some centres unmarked) [Compound 8]
IL-2 secretion [2]: less able to activate IL-2 secretion when compared with 5

CCCCCCCCCCCCCC[C@@H](O)[C@@H](O)[C@H](COC1OC(CO)C(O)C(O)C1O)NC(=O)CCCCCc1ccccc1 (some centres unmarked) [Compound 83]
IL-2 production (relative activity of fatty acyl chain analogs) [2]: significant increase of IL-2 production | selectivity IFN-γ versus IL-4 production [3]: high ratio of IFN-γ/IL-4 activity | IFN-γ secretion compared to KRN [4]: consistently stimulating greater IFN-γ secretion

CCCCCCCCCCCCCC[C@@H](O)[C@@H](O)[C@H](COC1OC(CO)C(O)C(O)C1O)NC(=O)CCCCCCCc1ccccc1 (some centres unmarked) [Compound 84]
IL-2 production (relative activity of fatty acyl chain analogs) [2]: significant increase of IL-2 production | IFN-γ secretion compared to KRN [4]: consistently stimulating greater IFN-γ secretion

poly IC
phenotypic changes of DC maturation (CD40, CD86, MHC class II, B7-H1, B7-DC up, CD119 down) [5]: induced similar phenotypic changes of maturation

From patent US20090117089A1, “GLYCOLIPIDS AND ANALOGUES THEREOF AS ANTIGENS FOR NK T CELLS” (The Rockefeller University, priority 2005, published 2009)
